Measurements reported in patent US6773627B2, “Cubic liquid crystalline compositions and methods for their preparation” (Children's Hospital Research Foundation, priority 2000, dated 2004).
Entries after “also recorded” stand apart in the source; their conditions may differ.

Assay: Determination of hydrotrope utility (polarized light microscopy and rheology of compound/water/monoolein compositions)
Type: physicochemical
Settings: for Formation of cubic phase in equilibrium with liquid water: system of compound, monoolein and water
Source text: Whether a compound is suitable to use as ingredient (A) can be determined by one skilled in the art without undue experimentation. The determination can be made by preparing a composition comprising the compound to be tested for use as the hydrotrope, the selected amphiphile, and the selected solvent and allowing the composition to equilibrate, for example, by the method described below in Reference Example 1. If the composition forms a cubic phase or cubic phase in combination with another phase, then the hydrotrope is suitable to use in this invention. If the composition forms a cubic phase or cubic phase in combination with an isotropic liquid, then the hydrotrope is preferred.
Polarized light microscopy (PLM) can be used to determine whether the composition formed cubic phase. PLM can be carried out on a polarized light microscope or constructed light box, as described by Laughlin, R. G., J. Colloid Interface Sci., 55, 239-242 (1976). Polarized light microscope textures define the phase/colloidal state of sample. Lamellar and hexagonal phases give birefringence (see Hecht, E., Optics, 2nd ed., Addison-Wesley Publishing Co., Reading, Mass., pp. 282-289 (1984)) and distinct textures such as Maltese Crosses (see Rosevear, F. B., J. Am. Oil Chemists Soc., 31, 628-638 (1954)). This is a consequence of the anisotropic phase structure of these particular phases, and their orientation relative to polarization of the light. However, L1, L2, L3, and cubic phases show no birefringence and appear dark in the microscope. Birefringence is a function of sample thickness, so sometimes it is difficult to see with a light microscope. Instead, the bulk sample can be placed in the aforementioned light box to secure a very thick sample.
Cubic phases are very viscous while the other phases are (i.e., L1, L2, and L3) are less viscous, like water. Therefore, lack of birefringence in combination with bulk solid-like rheological properties indicates the presence of cubic phase.
A compound for use as a hydrotrope is dissolved in water in amounts to form a hydrotrope solution. The solution is added to monoolein (DIMODAN® MO90K) to yield a composition. The composition is left to equilibrate overnight at a temperature of 25 to 30° C.
PLM can be carried out on a polarized light microscope or constructed light box, as described by Laughlin, R. G., J. Colloid Interface Sci., 55, 239-242 (1976). Rheological properties of the composition are also observed.
Various compounds are evaluated according to Reference Example 1. The compounds, the compositions prepared, and the results are in Table E1, below. FIG. 4 is a ternary diagram 400 showing the data points in Example 3. FIG. 5 is a ternary diagram 500 for 1,2-hexanediol 516, monoolein 517, and water 518. […] FIG. 6 is a ternary diagram 600 for 1,2-hexanediol 613, monoolein 614, and water 615. […] FIG. 7 is a ternary diagram 700 for ethanol 713, monoolein 714, and water 715.

[1] = compound 10, water 80, amphiphile (monoolein) 10 (κ)
[2] = system with monoolein and water

SMILES: CC(C)O [Example 2-propanol, 2-propanol]
- Phase(s) Formed [1]: does not form cubic phase; also recorded: Turbid solution and L1
- Suitability as hydrotrope [2]: not preferred to use as a hydrotrope

SMILES: CCN(CC)CCOC(=O)c1ccc(N)cc1.Cl [procaine hydrogen chloride, reference compound]
- Phase(s) Formed [1]: cubic and L1
- Suitability as hydrotrope [2]: effective as hydrotropes

SMILES: CCO [ethanol]
- Phase(s) Formed (FIG. 4 point 401, compound 20, water 48, amphiphile (monoolein) 32 (κ)): L1 and lamellar
- Phase(s) Formed (FIG. 4 point 404, compound 9, water 55, amphiphile (monoolein) 36 (κ)): cubic and lamellar
- Phase(s) Formed (FIG. 4 point 405, compound 6, water 56, amphiphile (monoolein) 38 (κ)): cubic and lamellar
- Phase(s) Formed (FIG. 7 point 701, compound 11, water 88, amphiphile (monoolein) 1 (κ)): cubic & isotropic liquid
- Phase(s) Formed (FIG. 7 point 702, compound 10, water 70, amphiphile (monoolein) 20 (κ)): cubic & isotropic liquid
- Phase(s) Formed (FIG. 7 point 703, compound 10, water 59, amphiphile (monoolein) 31 (κ)): cubic & isotropic liquid
- Phase(s) Formed (FIG. 7 point 704, compound 10, water 48, amphiphile (monoolein) 42 (κ)): cubic & isotropic liquid
- Phase(s) Formed (FIG. 7 point 706, compound 20, water 55, amphiphile (monoolein) 25 (κ)): L1 and lamellar
- Phase(s) Formed (FIG. 7 point 707, compound 19, water 49, amphiphile (monoolein) 32 (κ)): L1 and lamellar
- Phase(s) Formed (FIG. 7 point 708, compound 20, water 42, amphiphile (monoolein) 39 (κ)): lamellar
- Phase(s) Formed (FIG. 7 point 709, compound 29, water 60, amphiphile (monoolein) 11 (κ)): L1 and lamellar
- Phase(s) Formed (FIG. 7 point 710, compound 28, water 52, amphiphile (monoolein) 20 (κ)): L1 and lamellar
- Phase(s) Formed (FIG. 7 point 711, compound 30, water 40, amphiphile (monoolein) 30 (κ)): lamellar
- Phase(s) Formed (FIG. 7 point 712, compound 30, water 29, amphiphile (monoolein) 41 (κ)): lamellar
- Formation of cubic phase in equilibrium with liquid water: can be formed
- Suitability as hydrotrope [2]: preferred hydrotrope
- Amount of compound at which it can be used as a hydrotrope (system with monoolein and water, % of the system): less than or equal to 10%

SMILES: CCCCC(O)CO (stereo not shown) [1,2-hexanediol]
- Phase(s) Formed (FIG. 5 point 501, compound 10, water 81, amphiphile (monoolein) 9 (κ)): liquid water and L1
- Phase(s) Formed (FIG. 5 point 502, compound 10, water 71, amphiphile (monoolein) 19 (κ)): L1 and lamellar
- Phase(s) Formed (FIG. 5 point 503, compound 10, water 64, amphiphile (monoolein) 26 (κ)): L1 and lamellar
- Phase(s) Formed (FIG. 5 point 504, compound 12, water 53, amphiphile (monoolein) 35 (κ)): L1 and lamellar
- Phase(s) Formed (FIG. 5 point 505, compound 10, water 45, amphiphile (monoolein) 45 (κ)): L1 and lamellar
- Phase(s) Formed (FIG. 5 point 510, compound 20, water 40, amphiphile (monoolein) 40 (κ)): L1 and lamellar
- Phase(s) Formed (FIG. 6 point 601, compound 6, water 56, amphiphile (monoolein) 38 (κ)): cubic and lamellar
- Phase(s) Formed (FIG. 6 point 602, compound 4, water 58, amphiphile (monoolein) 38 (κ)): cubic and lamellar
- Phase(s) Formed (FIG. 6 point 603, compound 2, water 59, amphiphile (monoolein) 39 (κ)): cubic and lamellar
- Phase(s) Formed (FIG. 6 point 604, compound 6, water 38, amphiphile (monoolein) 56 (κ)): cubic and lamellar
- Phase(s) Formed (FIG. 6 point 605, compound 4, water 39, amphiphile (monoolein) 57 (κ)): cubic and lamellar
- Phase(s) Formed (FIG. 6 point 606, compound 2, water 39, amphiphile (monoolein) 59 (κ)): cubic and lamellar
- Phase(s) Formed (FIG. 6 point 607, compound 6, water 28, amphiphile (monoolein) 66 (κ)): cubic and lamellar
- Phase(s) Formed (FIG. 6 point 608, compound 2, water 29, amphiphile (monoolein) 69 (κ)): cubic and lamellar
- Phase(s) Formed (FIG. 6 point 609, compound 16, water 13, amphiphile (monoolein) 71 (κ)): lamellar
- Phase(s) Formed (FIG. 6 point 610, compound 10, water 14, amphiphile (monoolein) 76 (κ)): lamellar
- Phase(s) Formed (FIG. 6 point 611, compound 5, water 14, amphiphile (monoolein) 81 (κ)): lamellar
- Phase(s) Formed (FIG. 6 point 612, compound 5, water 12, amphiphile (monoolein) 83 (κ)): lamellar
- Formation of cubic phase in equilibrium with liquid water: does not form cubic phase in equilibrium with liquid water
- Suitability as hydrotrope [2]: suitable to use as a hydrotrope

SMILES: OCCCCO [1,4-butanediol]
- Phase(s) Formed [1]: cubic and L1
- Suitability as hydrotrope [2]: effective as hydrotropes
